Publication PMC4669708 (Cell Death & Disease, 2015)

How the values were obtained:
Test in all cases: c-ponatinib pulldown LC-MS/MS
Type in all cases: binding
[1] = target: T1, TAB1 (Homo sapiens, UniProt Q15750)
T1 sequence (Q15750 1-504): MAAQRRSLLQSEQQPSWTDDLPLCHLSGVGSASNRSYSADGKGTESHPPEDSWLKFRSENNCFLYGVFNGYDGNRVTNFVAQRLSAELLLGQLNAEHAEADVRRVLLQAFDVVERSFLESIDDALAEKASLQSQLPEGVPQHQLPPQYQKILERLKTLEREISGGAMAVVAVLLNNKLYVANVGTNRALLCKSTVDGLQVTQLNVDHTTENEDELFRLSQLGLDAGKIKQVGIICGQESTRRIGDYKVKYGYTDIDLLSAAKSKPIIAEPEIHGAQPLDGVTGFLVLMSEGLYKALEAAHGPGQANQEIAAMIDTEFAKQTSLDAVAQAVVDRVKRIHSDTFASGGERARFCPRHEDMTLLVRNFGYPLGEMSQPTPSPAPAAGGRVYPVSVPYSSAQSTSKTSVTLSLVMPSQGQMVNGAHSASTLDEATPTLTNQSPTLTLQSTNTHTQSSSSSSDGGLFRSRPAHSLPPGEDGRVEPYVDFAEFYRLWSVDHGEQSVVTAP
T1 sequence (O43318 1-606 partner): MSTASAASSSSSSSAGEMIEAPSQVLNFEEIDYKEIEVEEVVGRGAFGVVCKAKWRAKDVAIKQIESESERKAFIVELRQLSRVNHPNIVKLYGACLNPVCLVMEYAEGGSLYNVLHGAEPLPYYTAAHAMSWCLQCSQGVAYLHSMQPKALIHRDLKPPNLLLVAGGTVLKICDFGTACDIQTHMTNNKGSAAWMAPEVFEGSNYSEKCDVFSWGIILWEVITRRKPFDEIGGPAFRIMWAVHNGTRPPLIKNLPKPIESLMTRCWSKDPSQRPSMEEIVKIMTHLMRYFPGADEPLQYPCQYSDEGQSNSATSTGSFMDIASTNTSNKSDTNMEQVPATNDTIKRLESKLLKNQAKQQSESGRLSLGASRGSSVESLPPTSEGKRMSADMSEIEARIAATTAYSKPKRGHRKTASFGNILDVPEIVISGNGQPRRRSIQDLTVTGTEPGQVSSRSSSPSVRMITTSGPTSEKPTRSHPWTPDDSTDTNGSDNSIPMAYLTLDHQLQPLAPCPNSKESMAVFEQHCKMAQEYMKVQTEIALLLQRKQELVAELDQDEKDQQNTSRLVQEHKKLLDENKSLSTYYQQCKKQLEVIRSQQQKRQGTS
In short: (§1)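 Spectral counts and search-engine scores from LC-MS/MS of tryptic eluates gave drug-protein specificity P-values. Eluates came from duplicate pulldowns of 10 mg lysate on 25 nmol immobilized c-ponatinib. Competition was the ratio of median counts with versus without free compound.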

[2] = target: TUBA1B (Homo sapiens, UniProt P68363)
In short: as §1

[3] = target: T2, PAG1 (Homo sapiens, UniProt Q9NWQ8)
T2 sequence (Q9NWQ8 1-432): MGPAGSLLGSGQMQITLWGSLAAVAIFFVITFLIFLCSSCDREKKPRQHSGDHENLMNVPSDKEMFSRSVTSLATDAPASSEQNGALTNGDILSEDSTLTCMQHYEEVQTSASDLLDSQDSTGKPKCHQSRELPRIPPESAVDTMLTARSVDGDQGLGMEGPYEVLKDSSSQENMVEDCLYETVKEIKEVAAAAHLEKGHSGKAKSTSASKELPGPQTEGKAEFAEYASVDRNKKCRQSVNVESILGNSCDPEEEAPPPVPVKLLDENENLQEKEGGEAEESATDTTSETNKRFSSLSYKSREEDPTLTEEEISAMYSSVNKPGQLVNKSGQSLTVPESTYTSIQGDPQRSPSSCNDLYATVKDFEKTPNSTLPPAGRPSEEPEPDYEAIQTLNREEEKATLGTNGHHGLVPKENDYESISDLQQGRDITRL
In short: as §1

Chain of TUBA1B (P68363 whole entry): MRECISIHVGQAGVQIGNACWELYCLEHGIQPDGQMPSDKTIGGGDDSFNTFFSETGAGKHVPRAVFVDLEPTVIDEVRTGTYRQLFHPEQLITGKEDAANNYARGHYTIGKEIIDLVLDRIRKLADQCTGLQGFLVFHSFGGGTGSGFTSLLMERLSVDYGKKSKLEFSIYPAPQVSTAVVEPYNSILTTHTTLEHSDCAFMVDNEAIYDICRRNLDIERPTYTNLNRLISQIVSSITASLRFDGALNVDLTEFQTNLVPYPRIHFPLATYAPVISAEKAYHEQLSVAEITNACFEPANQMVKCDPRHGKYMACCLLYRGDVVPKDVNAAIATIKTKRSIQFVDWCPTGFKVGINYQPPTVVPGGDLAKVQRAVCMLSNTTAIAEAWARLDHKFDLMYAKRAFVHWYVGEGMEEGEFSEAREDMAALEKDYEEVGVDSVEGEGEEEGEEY
Chain of TUBA1B (P07437 whole entry partner): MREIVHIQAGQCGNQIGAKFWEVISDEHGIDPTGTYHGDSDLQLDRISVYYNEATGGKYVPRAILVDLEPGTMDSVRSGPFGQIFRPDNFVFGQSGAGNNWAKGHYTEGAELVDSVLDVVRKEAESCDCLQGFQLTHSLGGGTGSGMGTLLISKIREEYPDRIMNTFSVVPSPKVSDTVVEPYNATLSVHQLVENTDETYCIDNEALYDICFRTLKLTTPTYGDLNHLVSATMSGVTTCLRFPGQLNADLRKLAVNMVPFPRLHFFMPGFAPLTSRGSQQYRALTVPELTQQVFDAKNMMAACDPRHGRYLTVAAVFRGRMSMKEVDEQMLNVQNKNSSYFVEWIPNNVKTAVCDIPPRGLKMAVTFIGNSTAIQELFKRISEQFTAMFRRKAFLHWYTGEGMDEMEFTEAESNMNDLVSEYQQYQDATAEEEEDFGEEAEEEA

## Cc1ccc(C(=O)Nc2ccc(CN3CCN(CCCN)CC3)c(C(F)(F)F)c2)cc1C#Cc1cnc2cccnn12 [c-ponatinib]
[1]; + free ponatinib
  Av. SC comp.: 6.75
  Total SC comp.: 27
[1]; no competitor
  Av. SC: 38.25
  Total SC: 153
[2]; + free ponatinib
  Av. SC comp.: 10.25
  Total SC comp.: 41
[2]; no competitor
  Av. SC: 18.5
  Total SC: 74
[3]; + free ponatinib
  Av. SC comp.: 0
  Total SC comp.: 0
[3]; no competitor
  Av. SC: 2
  Total SC: 8
